{"source": "paper PMC10865806", "about": "“Structural insights into the molecular mechanism of high-level ceftazidime–avibactam resistance conferred by CMY-185” (mBio, 2024)", "key": {"AmpC^Ent385": {"system": "AmpC^Ent385", "set-up": "method as in PMID 32284381", "settings": "lowest Km reported to date; cited from earlier work"}, "other β-lactamases": {"system": "other β-lactamases", "set-up": "method as in PMID 30188999, PMID 27736756", "settings": "cited from earlier work"}, "CMY-172": {"system": "CMY-172", "settings": "cited from earlier work"}, "CMY-178": {"system": "CMY-178", "settings": "cited from earlier work"}, "CMY-2 variant N346Y [1]": {"molecular_target": "T1, CMY-2 variant N346Y (Klebsiella pneumoniae, UniProt Q48434, N366Y)", "T1 construct": "all CMY-2 variant genes encoding the mature enzyme without a signal peptide were cloned into the protein expression plasmid vector pET-30b; made in house; host or cells: E. coli BL21 (DE3), pET-30b", "test": "Steady-state hydrolysis kinetics", "format": "biochemical, Escherichia coli", "settings": "substrate 100 µM, 100–200 nM enzyme", "text": "(§1) We tested the enzymes, CMY-2, two single mutants V211S (CMY-42) and N346Y, three double mutants A114E_N346Y, Q120K_N346Y, and V211S_N346Y, and the quadruplet mutant CMY-185 to elucidate the impact on the kinetic properties resulting from the four amino acid substitutions present in CMY-185 compared with CMY-2 ([8]). The steady-state kinetic parameters kcat and Km (or Ki app) for nitrocefin, cephalothin, ceftazidime, and cefiderocol and the inhibition parameters Ki app, k2/K, k−2, and koff for avibactam are summarized in Table 1. During the hydrolysis of nitrocefin, we observed the reduction of the initial velocity at concentrations above 50 µM particularly for the CMY-2 variants harboring the N346Y substitution. As this could have represented substrate inhibition, we then determined the kinetics parameters for nitrocefin using the Haldane equation ([16]). […] In addition, during the hydrolysis of cefiderocol by CMY-185, the initial velocities at a concentration range of 3.7–59.4 µM were similar.\n(§2) The steady-state kinetics were carried out on a UV-Visible spectrometer (UV-1280, Shimadzu, Japan) in PBS pH 7.2 at 25°C with a constant amount of enzyme and varying concentrations of the substrates. We tested nitrocefin, cephalothin, ceftazidime, and cefiderocol as the substrates and avibactam as the inhibitor. The steady-state kinetics parameters Km and kcat were determined with the Michaelis-Menten equation. For poorly hydrolyzed substrates, the Km value was assumed to be the competitive inhibition constant (Ki app) value according to previous studies ([17], [19]). Inhibition parameter values of Ki app, k2/K, k−2, and koff for avibactam were determined using a method as described previously ([33]). Cephalothin was used as the reporter substrate for competitive inhibition experiments, and its concentration was fixed at 100 µM. […] Inverse steady-state initial velocities were plotted against the concentration of the competitive inhibitor agents, such as ceftazidime, cefiderocol, and avibactam. The data were analyzed by linear regression analysis of the Dixon plot, and Ki app (observed) was determined by dividing the y-intercept value by the slope of the line. It was then corrected to account for the affinity of cephalothin for each enzyme using the Equation (1): […]"}, "CMY-2 [2]": {"molecular_target": "T2, CMY-2 (Klebsiella pneumoniae, UniProt Q48434)", "T2 construct": "all CMY-2 variant genes encoding the mature enzyme without a signal peptide were cloned into the protein expression plasmid vector pET-30b; made in house; host or cells: E. coli BL21 (DE3), pET-30b", "test": "Steady-state hydrolysis kinetics", "format": "biochemical, Escherichia coli", "settings": "substrate 100 µM, 100–200 nM enzyme", "text": "as §1, §2"}, "[3]": {"molecular_target": "T3, CMY-2 variant A114E_N346Y (Klebsiella pneumoniae, UniProt Q48434, A134E/N366Y)", "T3 construct": "all CMY-2 variant genes encoding the mature enzyme without a signal peptide were cloned into the protein expression plasmid vector pET-30b; made in house; host or cells: E. coli BL21 (DE3), pET-30b", "test": "Steady-state hydrolysis kinetics", "format": "biochemical, Escherichia coli", "settings": "substrate 100 µM, 100–200 nM enzyme", "text": "as §1, §2"}, "CMY-2 variant N346Y [4]": {"molecular_target": "T1, CMY-2 variant N346Y", "test": "Competitive inhibition of cephalothin hydrolysis and avibactam inhibition kinetics", "format": "biochemical, Escherichia coli", "settings": "N346Y; reporter substrate cephalothin 100 µM, Dixon plot; read-out: Ki app", "text": "as §1\n(§3) The steady-state kinetics were carried out on a UV-Visible spectrometer (UV-1280, Shimadzu, Japan) in PBS pH 7.2 at 25°C with a constant amount of enzyme and varying concentrations of the substrates. We tested nitrocefin, cephalothin, ceftazidime, and cefiderocol as the substrates and avibactam as the inhibitor. The steady-state kinetics parameters Km and kcat were determined with the Michaelis-Menten equation. For poorly hydrolyzed substrates, the Km value was assumed to be the competitive inhibition constant (Ki app) value according to previous studies ([17], [19]). Inhibition parameter values of Ki app, k2/K, k−2, and koff for avibactam were determined using a method as described previously ([33]). Cephalothin was used as the reporter substrate for competitive inhibition experiments, and its concentration was fixed at 100 µM. The enzyme concentration was 1–10 nM. Inverse steady-state initial velocities were plotted against the concentration of the competitive inhibitor agents, such as ceftazidime, cefiderocol, and avibactam. The data were analyzed by linear regression analysis of the Dixon plot, and Ki app (observed) was determined by dividing the y-intercept value by the slope of the line. It was then corrected to account for the affinity of cephalothin for each enzyme using the Equation (1):\n(§4) (1) Ki app=Ki app (observed)/{1+[S]/Km (cephalothin)}\n(§5) where [S] represents the concentration of the reporter substrate cephalothin, and Km (cephalothin) is the Km value of cephalothin for each enzyme.\n(§6) The koff value was determined using a jump dilution assay. The enzyme and avibactam were mixed and preincubated at 25°C for 5 min. The concentration of avibactam depended on the enzyme and concentrations 10-fold higher from each Ki app (observed) value were adopted, which were determined based on the corrected competitive inhibition constants Ki app. Preincubated enzyme-avibactam mixture was then diluted 2,000-fold in the 100 µM cephalothin solution, and the hydrolysis of cephalothin was measured. Three independent measurements were performed for each enzyme and substrate or inhibitor combination. Curve fittings using linear or non-linear regression were performed with R 4.1.3 (R Core Team, 2022)."}, "CMY-2 [5]": {"molecular_target": "T2, CMY-2", "test": "Competitive inhibition of cephalothin hydrolysis and avibactam inhibition kinetics", "format": "biochemical, Escherichia coli", "text": "as §1, §3, §4, §5, §6"}, "[6]": {"molecular_target": "T4, CMY-2 variant Q120K_N346Y (Klebsiella pneumoniae, UniProt Q48434, N366Y/Q140K)", "T4 construct": "all CMY-2 variant genes encoding the mature enzyme without a signal peptide were cloned into the protein expression plasmid vector pET-30b; made in house; host or cells: E. coli BL21 (DE3), pET-30b", "test": "Competitive inhibition of cephalothin hydrolysis and avibactam inhibition kinetics", "format": "biochemical, Escherichia coli", "settings": "Q120K_N346Y; reporter substrate cephalothin 100 µM, Dixon plot; read-out: Ki app", "text": "as §1, §3, §4, §5, §6"}, "[7]": {"molecular_target": "T3, CMY-2 variant A114E_N346Y", "test": "Competitive inhibition of cephalothin hydrolysis and avibactam inhibition kinetics", "format": "biochemical, Escherichia coli", "settings": "reporter substrate cephalothin 100 µM, Dixon plot, read-out: Ki app", "text": "as §1, §3, §4, §5, §6"}, "CMY-185": {"molecular_target": "T5, CMY-185 (Klebsiella pneumoniae, UniProt Q48434, A134E/N366Y/Q140K/V231S)", "T5 construct": "all CMY-2 variant genes encoding the mature enzyme without a signal peptide were cloned into the protein expression plasmid vector pET-30b; made in house; host or cells: E. coli BL21 (DE3), pET-30b", "test": "Competitive inhibition of cephalothin hydrolysis and avibactam inhibition kinetics", "format": "biochemical, Escherichia coli", "settings": "CMY-185; reporter substrate cephalothin 100 µM, Dixon plot; read-out: Ki app", "text": "as §1, §3, §4, §5, §6"}}}
{"smiles": "CC(C)(O/N=C(\\C(=O)N[C@@H]1C(=O)N2C(C(=O)[O-])=C(C[N+]3(CCNC(=O)c4ccc(O)c(O)c4Cl)CCCC3)CS[C@H]12)c1csc(N)n1)C(=O)O", "note": "[Cefiderocol, cefiderocol]", "values": [{"measurement": "Km", "setting": "AmpC^Ent385", "value": 49.8, "unit": "µM"}, {"measurement": "Km", "setting": "other β-lactamases", "value": "> 190", "unit": "µM"}, {"measurement": "MIC", "setting": "CMY-172", "value": 1, "unit": "µg/mL"}, {"measurement": "MIC", "setting": "CMY-178", "value": 1, "unit": "µg/mL"}, {"measurement": "hydrolysis", "setting": "CMY-2 variant N346Y [1]", "value": "no apparent hydrolysis"}, {"measurement": "hydrolysis", "setting": "CMY-2 [2]", "value": "no apparent hydrolysis"}, {"measurement": "hydrolysis", "setting": "[3]", "value": "no apparent hydrolysis"}, {"measurement": "Ki", "setting": "CMY-2 variant N346Y [4]", "value": 700, "unit": "nM"}, {"measurement": "fold higher Ki app", "setting": "CMY-2 [5]; cefiderocol compared with ceftazidime", "value": 10, "unit": "fold"}, {"measurement": "Ki", "setting": "CMY-2 [5]; reporter substrate cephalothin 100 µM, Dixon plot, read-out: Ki app", "value": "8000 ± 1300", "unit": "nM"}, {"measurement": "Ki", "setting": "[6]", "value": 400, "unit": "nM"}, {"measurement": "Ki", "setting": "[7]", "value": 400, "unit": "nM"}, {"measurement": "Ki", "setting": "CMY-185", "value": 200, "unit": "nM"}]}
